Reference: patent US20230303584A1, “4,5,6,7-TETRAHYDROTHIENO[2,3-C]PYRIDINE SUMO INHIBITORS AND USES THEREOF” (SUVALENT THERAPEUTICS INC., priority 2020, published 2023)

Legend:
[1] = molecular target: SUMO activating enzyme (E1) (Homo sapiens (Human), UniProt Q9UBT2); experiment: Inhibitory effect on activating enzyme (E1), 15 min preincubation (Table 2); format: biochemical; settings: enzyme preincubated with compound for 15 minutes; read-out: E1 biological activity
Description: Compounds are evaluated for their inhibitory effect on activating enzymes (E1) of ubiquitin, SUMO, Nedd8, Urm1, ISG15 or Atg7 using previously reported methods and protocols. One example is in: Allosteric inhibition of ubiquitin-like modifications by a class of inhibitor of SUMO-activating enzyme. Cell Chemical Biology, 26,1-11, 2019. PMID: 28051857. The enzyme was preincubated with the compounds for 15 minutes.

[2] = test system: SUMO 2/3 conjugates (sumoylation levels) in HCT-116 cells; experiment: HCT-116 4 hour cell assay, immunoblot of SUMO 2/3 conjugates; format: cell-based; settings: 4 h treatment, Western blot, read-out: Cell HCT-116 Western SUMO 2/3 4 h IC50 (uM) Ave
Description: This protocol describes the procedures used to assess the effects of compounds of interest on sumoylation levels. Immunoblot of SUMO ⅔ conjugates are performed and IC50 curves are generated upon quantification of sumoylations bands. HCT-1 16 cells are seeded in a 12 well plate (500,000 cells/well). The following day the cells are treated with compounds of interest (resuspended in DMSO) for 4 hours (11 concentrations with a three-fold dilution; starting concentration 25 µM) Following 4 hours of incubation the cells are washed with ice cold PBS 1X and protein extraction is performed with RIPA buffer supplemented with phosphatases and proteases inhibitors, 25 mM of NEM and 50 units/mL of Benzonase . Samples undergo centrifugation at 13,000 RPM, 4° C., for 10 minutes and the supernatant is collected. Protein quantification is performed using BCA. Non-Reducing Laemmli Buffer is added to the samples. Samples are heated at 75° C. for 10 minutes, and are centrifuged for 3 minutes at 9000 RPM Nupage 4-12% Bis Tris gels and 1x MOPS buffer (Fisher Scientific) + 1x NuPAGE Antioxidant (Invitrogen) are used to perform the SDS-PAGE gel electrophoresis (20 to 40 µg of proteins are loaded in the gels). Proteins are then transferred to PVDF membranes and the level of total proteins are measured by staining with Revert Total Protein Stain and the fluorescent bands are acquired using the LI-COR FC (700 nm for 1 min) Membranes are blocked for 5 minutes with Bio-Rad Blocking Buffer and are subsequently incubated over night at 4° C. with Anti-Sumo 2-3 mAb (MBL #M114-3, 1:1000 in Bio-Rad Blocking Buffer, 0.2% Tween 20) Membranes are washed with 1X TBS-T (3 times for 5 minutes) and sumoylation is detected using Li-cor IRDye 800CW Goat anti-Mouse IgG secondary antibody (1:10,000 dilution) upon 1 hour of incubation in blocking buffer with 0.2% Tween 20 and 0.01% SDS. After the incubation, the membranes are washed with 1X TBS-T (3 times for 5 minutes). To visualize the fluorescent bands the membranes are scanned with LI-COR FC (700 nm for 1 min and […] for 2 mins) Sumoylation levels are quantified upon normalization with total protein levels, using the LI-COR Image Studio Lite 5.2 Software.

SAE1 = SAE1 (Homo sapiens (Human), UniProt Q9UBT2); experiment: SAE high throughput biochemical (HTRF) assay; settings: 15 min preincubation; 100 µM ATP; read-out: 15 min preincubation HTRF IC50 (uM) Ave
Description: Assay buffer was prepared [50 mM HEPES, pH 7.5, 0.1% BSA and 10 mM MgCl2] as was the Stop Buffer [100 mM HEPES, pH 7.5, 0.05% Tween20, and 410 mM KF]. The 2x Reaction Buffer [80 nM SUMO-GST, 80 nM UBC9-His, 200 µM ATP and diluted in Assay Buffer] and Antibody Reaction Mix [13.34 nM anti-GST XL665, 1.66 nM anti-His EuK and Diluted in Stop Buffer] were also prepared. Compounds were dissolved at 200x in DMSO in a 384-well plate. Serial dilutions were performed in DMSO for each compound, and then each concentration was diluted another 50-fold in Assay Buffer, to 4x the final concentration. 2.5 µL of each concentration was transferred into its own well in a 384-well plate. SAE1 was then diluted to 4x in Assay Buffer, and 2.5 µL of 4x SAE1 was mixed into each compound-containing well. After incubating for 15 minutes at room temperature, 5 µL of 2x Reaction Buffer was mixed into every well. Then after another 45 minutes at room temperature, 10 µL of Antibody Reaction Mix was added and mixed into every well. This plate was then read on an HTRF-compatible plate reader after 2 hours at room temperature, and again after sitting at room temperature overnight. [Final Component Concentrations: SAE1: 12.5 nM; SUMO-GST: 40 nM; UBC9-His: 40 nM; Anti-GST-XL665: 6.67 nM; Anti-His-EuK: 0.83 nM; and ATP: 100 µM ] Alternatively, the compounds are tested at a single concentration of 25 micromolar and the percent of control is measured.

Chain of SAE1 (Q9UBE0 whole entry partner): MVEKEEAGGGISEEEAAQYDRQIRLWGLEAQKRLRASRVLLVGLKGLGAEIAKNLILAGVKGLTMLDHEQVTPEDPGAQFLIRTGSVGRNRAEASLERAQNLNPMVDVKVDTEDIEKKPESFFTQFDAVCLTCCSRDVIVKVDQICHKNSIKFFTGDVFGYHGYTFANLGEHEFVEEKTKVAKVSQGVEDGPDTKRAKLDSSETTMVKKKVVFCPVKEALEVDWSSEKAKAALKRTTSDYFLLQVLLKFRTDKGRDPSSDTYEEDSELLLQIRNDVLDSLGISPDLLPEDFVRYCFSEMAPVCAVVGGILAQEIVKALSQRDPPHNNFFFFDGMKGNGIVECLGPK
Chain of SAE1 (Q9UBT2 whole entry): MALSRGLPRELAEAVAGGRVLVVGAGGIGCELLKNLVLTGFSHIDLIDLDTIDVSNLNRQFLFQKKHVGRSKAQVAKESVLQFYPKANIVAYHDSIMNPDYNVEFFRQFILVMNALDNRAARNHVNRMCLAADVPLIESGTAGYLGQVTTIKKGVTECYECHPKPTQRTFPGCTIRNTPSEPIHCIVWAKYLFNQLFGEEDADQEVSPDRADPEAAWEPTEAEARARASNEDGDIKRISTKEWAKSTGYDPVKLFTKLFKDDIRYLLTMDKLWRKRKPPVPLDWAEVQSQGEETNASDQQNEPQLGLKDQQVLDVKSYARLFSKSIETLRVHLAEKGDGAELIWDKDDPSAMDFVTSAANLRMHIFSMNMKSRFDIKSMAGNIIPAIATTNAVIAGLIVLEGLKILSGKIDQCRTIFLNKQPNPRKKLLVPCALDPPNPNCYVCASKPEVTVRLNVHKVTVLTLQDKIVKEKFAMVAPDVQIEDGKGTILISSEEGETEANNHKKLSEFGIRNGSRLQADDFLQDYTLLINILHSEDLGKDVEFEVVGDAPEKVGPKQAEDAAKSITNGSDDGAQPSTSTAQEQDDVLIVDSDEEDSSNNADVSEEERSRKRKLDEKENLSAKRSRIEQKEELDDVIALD
Chain of SUMO activating enzyme (E1) (Q9UBT2 whole entry): as above
Chain of SUMO activating enzyme (E1) (Q9UBE0 whole entry partner): as the sequence (Q9UBE0 whole entry partner) above

C=CC(=O)N1Cc2sc(Cl)cc2[C@H](c2ccccc2-c2cn(C(C)C)nc2C(F)(F)F)C1 [Compound 255]
IC50 [1]: < 10000 nM

C=CC(=O)N1Cc2sc(Cl)cc2[C@H](c2ccccc2-c2cn(C(C)(C)C(N)=O)nc2C(F)(F)F)C1 [Compound 312]
IC50 [2]: 0.28 µM | IC50 [1]: < 10000 nM | IC50 (SAE1): 0.23 µM

C=CC(=O)N1Cc2sc(C(=C)C)cc2[C@H](c2ccccc2-c2cn(CC)nc2C(F)(F)F)C1 [Compound 318]
IC50 [2]: 0.33 µM | IC50 (SAE1): 0.29 µM

CCn1cc(-c2ccccc2[C@@H]2CN(C(=O)/C=C/CF)Cc3sc(Cl)cc32)c(C(F)(F)F)n1 [Compound 323]
IC50 [2]: 0.39 µM | IC50 (SAE1): 0.13 µM

C=CC(=O)N1Cc2sc(-c3ccco3)cc2[C@H](c2ccccc2-c2cn(CC)nc2C(F)(F)F)C1 [Compound 324]
IC50 [2]: 0.34 µM | IC50 (SAE1): 0.14 µM

C=CC(=O)N1Cc2sc(Cl)cc2C(c2ccccc2-c2cn(-c3ccncc3Cl)nc2C(F)(F)F)C1 (stereo not shown) [Compound 340]
IC50 (SAE1): 0.93 µM

C=CC(=O)N1Cc2sc(Cl)cc2[C@H](c2ccccc2-c2cnn(CC)c2CC)C1 [Compound 360]
IC50 [2]: 13.6 µM | IC50 (SAE1): 4.33 µM
